Source: patent US12129233B2, “Water-soluble salts of cannabinoids, preparation and uses thereof” (priority 2021, dated 2024)
Where a name gives a salt, the structure may show the parent alone.

test: physchem; details: water

| Compound | Solubility [µg/mL] |
| --- | --- |
| CCCCCc1cc(O)c(C/C=C(\C)CCC=C(C)C)c(O)c1 [drawing 35/drawing 36 1:1, 1-Benzylpyridinium cannabigerol salt (1:1)] | 1000 |

same assay, conditions: water, Solubility

| Compound | Solubility [µg/mL] |
| --- | --- |
| CCCCCc1cc(O)c2c(c1)OC(C)(C)C1CCC(C)=CC21 (centres unmarked) [drawing 25/drawing 28 1:1, Meglumine Salt with THC (1:1)] | 9000 |
| CCCCCc1cc2c(c(O)c1C(=O)O)C1C=C(C)CCC1C(C)(C)O2 (centres unmarked) [drawing 32/drawing 34 1:2, Meglumine Salt with Tetrahydrocannabinolic Acid (2:1)] | 20000 |

same assay, conditions: water, Solubility, in water; synthesized salts (and cannabinol parent)

| Compound | Solubility [µg/mL] |
| --- | --- |
| C=C(C)C1CCC(C)=CC1c1c(O)cc(CCCCC)c(C(=O)O)c1O (centres unmarked) [drawing 30/drawing 31 1:3, Choline Salt with Cannabidiolic Acid (3:1)] | 24000 |
| CCCCCc1cc2c(c(O)c1C(=O)O)C1C=C(C)CCC1C(C)(C)O2 (centres unmarked) [drawing 32/drawing 33 1:2, Choline Salt with Tetrahydrocannabinolic Acid (2:1)] | 20000 |

test: not given; details: in water; synthesized salts (and cannabinol parent)

| Compound | Solubility |
| --- | --- |
| CCCc1cc(O)c2c(c1)OC(C)(C)C1CCC(C)=CC21 (centres unmarked) [drawing 37/drawing 38 1:1, Tetrakis(2-hydroxyethyl)ammonium Salt with Δ^9-Tetrahydrocannabivarin (1:1)] | 7000 µg/mL |
| CCCCCc1cc(O)c2c(c1)OC(C)(C)C1CCC(C)=CC21 (centres unmarked) [drawing 25/drawing 26 1:1, Choline Salt with THC (1:1)] | 3000 µg/mL |
| CCCc1cc(O)c2c(c1)OC(C)(C)C1CCC(C)=CC21 (centres unmarked) [drawing 37/n^−Bu4N^+ 1:1, Tetrabutylammonium Salt with Δ^9-Tetrahydrocannabivarin (1:1)] | 200 µg/mL |
| CCCCCc1cc(O)c2c(c1)OC(C)(C)c1ccc(C)cc1-2 [drawing 39, Cannabinol, reference compound] | insoluble |
| CCCCCc1cc(O)c2c(c1)OC(C)(C)c1ccc(C)cc1-2 [drawing 39/Et4N^+ 1:1, Tetraethylammonium Salt with Cannabinol (1:1)] | 200 µg/mL |
| CCCCCc1cc(O)c2c(c1)OC(C)(C)C1CCC(C)=CC21 [drawing 25/drawing 27 1:1, L-Lysine Salt with THC (1:1)] | 2000 µg/mL |
| CCCCCc1cc(O)c2c(c1)OC(C)(C)c1ccc(C)cc1-2 [drawing 39/drawing 41 1:1, Acetylcholine Salt with Cannabinol (1:1)] | 1000 µg/mL |
| Procaine Salt with CBD (1:1) [drawing 17/drawing 22 1:1] | 5000 µg/mL |
| CCCCCc1cc(O)c2c(c1)OC(C)(C)C1CCC(C)=CC21 (centres unmarked) [drawing 25/drawing 29 1:1, Agmatine Salt with THC (1:1)] | 200 µg/mL |
| Procaine Salt with CBD (2:1) [drawing 17/drawing 22 1:2] | 6000 µg/mL |

test: not given; details: in water; parent cannabinoid without base, literature value (footnotes a-f); cited from earlier work

| Compound | Solubility |
| --- | --- |
| CCCCCc1cc(O)c2c(c1)OC(C)(C)C1CCC(C)=CC21 (centres unmarked) [drawing 25, Δ^9-tetrahydrocannabinol] | 0.0028^[b] mg/mL |
| CCCc1cc(O)c2c(c1)OC(C)(C)C1CCC(C)=CC21 (centres unmarked) [drawing 37, Δ^9-Tetrahydrocannabivarin] | 0.009^[f] mg/mL |
| CCCCCc1cc2c(c(O)c1C(=O)O)C1C=C(C)CCC1C(C)(C)O2 (centres unmarked) [drawing 32, Tetrahydrocannabinolic acid] | 0.048^[d] mg/mL |
| C=C(C)[C@@H]1CCC(C)=C[C@H]1c1c(O)cc(CCCCC)cc1O [Cannabidiol] | 0.0007^[a] mg/mL |
| C=C(C)[C@@H]1CCC(C)=C[C@H]1c1c(O)cc(CCCCC)c(C(=O)O)c1O [Cannabidiolic acid] | 2.2^[c] mg/mL |
